Key:
Conditions in all cases: 48 h
[1] = tested on: SEM cells; test: cell viability relative to DMSO control; higher = less cytotoxic
Method in brief: (§1)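 NOMO1 or SEM (500 cells/well) or P12-Ichikawa (1000 cells/well) leukemia cells were adapted for at least four passages in each medium. They were seeded in 1536-well plates (5 μl) and pin-dosed with library compounds in DMSO over an 11-point threefold series, 47 μM to 0.79 nM. CellTiter-Glo One luminescence was read after 48 h at 37°C. Viability is the per-plate percentage relative to DMSO wells, with cell-free wells as background.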

[2] = tested on: NOMO1; test: as above
Method in brief: as §1

[3] = tested on: P12-Ichikawa; test: as above
Method in brief: as §1

[4] = tested on: SEM cells; test: AUC of viability dose-response curve (% viability x log10 dose units); higher = less sensitive
Method in brief: (§2)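 Leukemia cells adapted to each medium were seeded in 1536-well plates (500 or 1000 cells/well). They were dosed with library compounds in DMSO at 11 threefold doses, 47 μM to 0.79 nM, for 48 h at 37°C. CellTiter-Glo One luminescence was normalised per plate to DMSO and cell-free wells. Area under the curve was integrated by trapezoidal rule over log10 doses on a four-parameter log-logistic fit; curves exceeding full viability were scaled and curves failing quality control removed.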

[5] = tested on: NOMO1; test: as above
Method in brief: as §2

[6] = tested on: P12-Ichikawa; test: as above
Method in brief: as §2

CCC1=C(C)CN(C(=O)NCCc2ccc(S(=O)(=O)NC(=O)N[C@H]3CC[C@H](C)CC3)cc2)C1=O
cell viability [%]
Conditions	[1]	[2]	[3]
HPLM + 10% dialyzed FBS, 0.000781 µM	78.7	97.4	94.6
HPLM + 10% dialyzed FBS, 0.00234 µM	91.5	93.3	102
HPLM + 10% dialyzed FBS, 0.00702 µM	93.2	105	98.9
HPLM + 10% dialyzed FBS, 0.0211 µM	93.3	102	104
HPLM + 10% dialyzed FBS, 0.0632 µM	86.4	104	107
HPLM + 10% dialyzed FBS, 0.19 µM	104	112	104
HPLM + 10% dialyzed FBS, 0.569 µM	103	101	102
HPLM + 10% dialyzed FBS, 1.71 µM	109	108	105
HPLM + 10% dialyzed FBS, 5.12 µM	114	87	97.7
HPLM + 10% dialyzed FBS, 15.4 µM	104	83.3	109
HPLM + 10% dialyzed FBS, 46.1 µM	116	116	109
RPMI 5 mM glucose + 10% FBS, 0.000781 µM	81.1	86.3	89.5
RPMI 5 mM glucose + 10% FBS, 0.00234 µM	92.2	86.4	101
RPMI 5 mM glucose + 10% FBS, 0.00702 µM	95	91.1	95.5
RPMI 5 mM glucose + 10% FBS, 0.0211 µM	85.5	98.4	92.9
RPMI 5 mM glucose + 10% FBS, 0.0632 µM	93	88.3	95.3
RPMI 5 mM glucose + 10% FBS, 0.19 µM	92.6	100	111
RPMI 5 mM glucose + 10% FBS, 0.569 µM	94.8	90.3	107
RPMI 5 mM glucose + 10% FBS, 1.71 µM	100	89.3	101
RPMI 5 mM glucose + 10% FBS, 5.12 µM	94.7	95.4	87.3
RPMI 5 mM glucose + 10% FBS, 15.4 µM	92.6	91.4	113
RPMI 5 mM glucose + 10% FBS, 46.1 µM	94.7	95.3	115
RPMI 5 mM glucose + 10% dialyzed FBS, 0.000781 µM	94.9	82.2	90.7
RPMI 5 mM glucose + 10% dialyzed FBS, 0.00234 µM	87.6	97.7	86
RPMI 5 mM glucose + 10% dialyzed FBS, 0.00702 µM	101	97.6	90.7
RPMI 5 mM glucose + 10% dialyzed FBS, 0.0211 µM	86.2	92.3	92.5
RPMI 5 mM glucose + 10% dialyzed FBS, 0.0632 µM	93.7	99.5	103
RPMI 5 mM glucose + 10% dialyzed FBS, 0.19 µM	94.8	93	104
RPMI 5 mM glucose + 10% dialyzed FBS, 0.569 µM	96.1	96.3	98.5
RPMI 5 mM glucose + 10% dialyzed FBS, 1.71 µM	87.7	94.1	98.8
RPMI 5 mM glucose + 10% dialyzed FBS, 5.12 µM	94.3	99.3	94.8
RPMI 5 mM glucose + 10% dialyzed FBS, 15.4 µM	96	92.5	104
RPMI 5 mM glucose + 10% dialyzed FBS, 46.1 µM	94.1	104	108

AUC of viability dose-response curve
Conditions	[4]	[5]	[6]
HPLM + 10% dialyzed FBS	417	475	458
RPMI 5 mM glucose + 10% FBS	443	439	442
RPMI 5 mM glucose + 10% dialyzed FBS	445	457	458

CN(C)CCC=C1C2=C(C=CC=C2)\C=C/C3=C1C=CC=C3
cell viability [%]
Conditions	[1]	[2]	[3]
HPLM + 10% dialyzed FBS, 0.000781 µM	108	–	109
HPLM + 10% dialyzed FBS, 0.00234 µM	115	–	118
HPLM + 10% dialyzed FBS, 0.00702 µM	120	–	114
HPLM + 10% dialyzed FBS, 0.0211 µM	100	–	117
HPLM + 10% dialyzed FBS, 0.0632 µM	116	–	120
HPLM + 10% dialyzed FBS, 0.19 µM	124	–	123
HPLM + 10% dialyzed FBS, 0.569 µM	116	–	106
HPLM + 10% dialyzed FBS, 1.71 µM	101	–	105
HPLM + 10% dialyzed FBS, 5.12 µM	108	–	96.9
HPLM + 10% dialyzed FBS, 15.4 µM	99.1	–	105
HPLM + 10% dialyzed FBS, 46.1 µM	72.2	–	87.1
RPMI 5 mM glucose + 10% FBS, 0.000781 µM	108	108	–
RPMI 5 mM glucose + 10% FBS, 0.00234 µM	116	100	–
RPMI 5 mM glucose + 10% FBS, 0.00702 µM	106	95.5	–
RPMI 5 mM glucose + 10% FBS, 0.0211 µM	109	98	–
RPMI 5 mM glucose + 10% FBS, 0.0632 µM	109	95.9	–
RPMI 5 mM glucose + 10% FBS, 0.19 µM	112	90.3	–
RPMI 5 mM glucose + 10% FBS, 0.569 µM	93.1	98.7	–
RPMI 5 mM glucose + 10% FBS, 1.71 µM	68.7	106	–
RPMI 5 mM glucose + 10% FBS, 5.12 µM	102	94	–
RPMI 5 mM glucose + 10% FBS, 15.4 µM	101	77	–
RPMI 5 mM glucose + 10% FBS, 46.1 µM	84.9	16.4	–
RPMI 5 mM glucose + 10% dialyzed FBS, 0.000781 µM	112	98.7	115
RPMI 5 mM glucose + 10% dialyzed FBS, 0.00234 µM	108	99	109
RPMI 5 mM glucose + 10% dialyzed FBS, 0.00702 µM	129	107	105
RPMI 5 mM glucose + 10% dialyzed FBS, 0.0211 µM	130	104	115
RPMI 5 mM glucose + 10% dialyzed FBS, 0.0632 µM	119	114	119
RPMI 5 mM glucose + 10% dialyzed FBS, 0.19 µM	128	103	107
RPMI 5 mM glucose + 10% dialyzed FBS, 0.569 µM	112	107	111
RPMI 5 mM glucose + 10% dialyzed FBS, 1.71 µM	106	95.3	102
RPMI 5 mM glucose + 10% dialyzed FBS, 5.12 µM	116	99.3	106
RPMI 5 mM glucose + 10% dialyzed FBS, 15.4 µM	108	66.6	105
RPMI 5 mM glucose + 10% dialyzed FBS, 46.1 µM	81.7	21.2	84.1

AUC of viability dose-response curve
Conditions	[4]	[5]	[6]
HPLM + 10% dialyzed FBS	459	418	449
RPMI 5 mM glucose + 10% FBS	438	440	401
RPMI 5 mM glucose + 10% dialyzed FBS	466	438	469

CCCN[S+](=O)([O-])Nc1ncnc(OCCOc2ncc(Br)cn2)c1-c1ccc(Br)cc1
[1], HPLM + 10% dialyzed FBS
Conditions	cell viability [%]
0.000781 µM	125
0.00234 µM	120
0.00702 µM	123
0.0211 µM	120
0.0632 µM	123
0.19 µM	137
0.569 µM	123
1.71 µM	123
5.12 µM	124
15.4 µM	131
46.1 µM	88.8

AUC of viability dose-response curve
Conditions	[4]	[5]	[6]
HPLM + 10% dialyzed FBS	470	442	457
RPMI 5 mM glucose + 10% FBS	468	468	431
RPMI 5 mM glucose + 10% dialyzed FBS	429	468	452

C[C@H]([C@H]1C\C(=C(CO)/C(=O)O1)C)[C@H]2CC[C@H]3[C@@H]4C[C@H]5O[C@]56[C@@H](O)\C=C/C(=O)[C@]6(C)[C@H]4CC[C@]23C
Conditions	cell viability [%]
[2], RPMI 5 mM glucose + 10% FBS, 0.000781 µM	133
[2], RPMI 5 mM glucose + 10% FBS, 0.00234 µM	123
[2], RPMI 5 mM glucose + 10% FBS, 0.00702 µM	122
[2], RPMI 5 mM glucose + 10% FBS, 0.0211 µM	128
[2], RPMI 5 mM glucose + 10% FBS, 0.0632 µM	119
[2], RPMI 5 mM glucose + 10% FBS, 0.19 µM	115
[2], RPMI 5 mM glucose + 10% FBS, 0.569 µM	28.6
[2], RPMI 5 mM glucose + 10% FBS, 1.71 µM	20.5
[2], RPMI 5 mM glucose + 10% FBS, 5.12 µM	9.85
[2], RPMI 5 mM glucose + 10% FBS, 15.4 µM	6.35
[2], RPMI 5 mM glucose + 10% FBS, 46.1 µM	3.75
[3], HPLM + 10% dialyzed FBS, 0.000781 µM	126
[3], HPLM + 10% dialyzed FBS, 0.00234 µM	124
[3], HPLM + 10% dialyzed FBS, 0.00702 µM	123
[3], HPLM + 10% dialyzed FBS, 0.0211 µM	129
[3], HPLM + 10% dialyzed FBS, 0.0632 µM	121
[3], HPLM + 10% dialyzed FBS, 0.19 µM	100
[3], HPLM + 10% dialyzed FBS, 0.569 µM	11.3
[3], HPLM + 10% dialyzed FBS, 1.71 µM	7.84
[3], HPLM + 10% dialyzed FBS, 5.12 µM	5.43
[3], HPLM + 10% dialyzed FBS, 15.4 µM	3.44
[3], HPLM + 10% dialyzed FBS, 46.1 µM	1.95

AUC of viability dose-response curve
Conditions	[4]	[5]	[6]
HPLM + 10% dialyzed FBS	259	271	263
RPMI 5 mM glucose + 10% FBS	253	283	258
RPMI 5 mM glucose + 10% dialyzed FBS	260	286	261
